Where two headings read alike, the source gives them in different places.
How the values were obtained:
[1] = molecular target: monoclonal antibody P3 6D4; assay: Kinetics and inhibition of catalytic ester hydrolysis by monoclonal antibody P3 6D4, spectrophotometric at 245 nm; type: biochemical, mouse; conditions: substrate Compound 7; read-out: inhibition constant ki, catalytic reaction with Compound 7
Description: FIG. 4 illustrates a Lineweaver-Burk plot for the hydrolysis of Compound 7 by anti-Compound 4 monoclonal antibody from hybridoma P3 6D4. Velocities were determined spectrophotometrically by measuring initial rates during the first linear portion of the reaction as described with reference to Table 2. The substrate concentrations were corrected for amounts consumed during initial equilibration. ( ) No inhibitor present. ( ) Inhibited by 50 nM phosphonate (Compound 3). ( ) Inhibited by 100 nM phosphonate (Compound 3).
In particular, an exemplary monoclonal receptor was produced by the standard hybridoma technology of Kohler et al., Nature, 256, 495 (1975). Specifically, female 129G1X^+ mice were immunized by intraperitoneal injection with an inoculum of 100 micrograms of conjugate (e.g., Compound 4i bound to KLH) in 300 microliters of a 1:1 mixture of phosphate buffered saline (PBS) pH 7.4 and complete Freund's adjuvant. Two weeks later, the mice were again injected in a like manner with 50 micrograms of the foregoing conjugate in 300 microliters of a 1:1 mixture of PBS (pH 7.4) and 10 mg/ml alum. After an additional eight weeks, the mice were immunized intravenously with 50 micrograms of the conjugate in 200 microliters of PBS (pH 7.4). The spleens were removed from the mice 4 days later, and the spleen cells were fused to myeloma cells.
Reaction kinetics were measured spectrophotometrically by following the absorption change at 245 nanometers. […] Kinetic parameters obtained with these substrates are shown in Table 2 along with the inhibition constants obtained with phosphonate (Compound 3). Under these conditions, the acceleration above the background rate is about 960-fold for Compound 7 and about 200-fold for Compound 8 (corrected for the background hydrolysis rate).
*The kinetic parameters shown in Table 2 are for the hydrolysis of esters
(Compounds 7 and 8) by monoclonal antibody P3 6D4. A PerkinElmer lambda 4
spectrophotometer, equipped with thermostatted cell holder, was used to
measure absorption changes at 245 nm. Cells containing the substrate at
concentrations of 0.5 to 50 micromolar in phosphate buffer (50 mM, pH 8.0
were preequilibrated at 25 degrees C. The concentration of active IgG in
stock solution was found by reacting with the coumarin ester (Compound 5)
and measuring the yield of hydroxycoumarin by fluorescence. The kinetic
run was initiated by addition of an aliquot of the antibody stock solutio
(in 50 mM phosphate buffer, pH 8.0) calculated to give 100 nM IgG. The
mixture was allowed to equilibrate for 2 to 3 minutes and the rate was
then measured during the subsequent 10 minutes. The absorption change for
complete hydrolysis was determined by treatment with esterase. Kinetic
parameters were obtained from L ineweaverBurk plots (see FIG. 4).
Inhibition constants were determined from a plot of the slopes with at
least four inhibitor concentrations of Compound 3. The data were analyzed

[2] = molecular target: monoclonal receptor P3 6D4; assay: Stoichiometric transacylation reaction of monoclonal receptor P3 6D4 with coumarin ester Compound 5 (fluorescence) and its inhibition/inactivation; type: biochemical, mouse
Description: A Perkin-Elmer LS-5 fluorescence spectrometer was operated at a fixed wavelength, using 355 nanometers (nm) for excitation and measuring the emission at 455 nm. A stock solution of the coumarin ester 5 was prepared in dioxane and was diluted to the desired concentrations in Tris-HCl (50 mM, pH 7) or sodium phosphate (50 mM, pH 4-9).
Reactions were run at 23 degrees C and were initiated by the addition of an aliquot of antibody solution (1 mg/ml) to substrate solutions to provide a final protein concentration of 100 nM. Final fluorescence values were determined by hydrolysis of the substrate with pig liver esterase. The observed reaction rate was corrected for spontaneous hydrolysis. Reaction kinetics were studied by measuring initial rates under pseudo-first order conditions. Active protein concentration was extrapolated from fluorescence values at the end of the reaction. The kinetic parameters were obtained by fitting the data to a hyperbolic curve and from double reciprocal plots. Inhibition constants were determined from the Lineweaver-Burk plot data with at least five inhibitor concentrations. All the data were studied by a least squares analysis.
Antibody preparations were inactivated without introducing fluorescent products by the addition of the activated ester (Compound 8) in dioxane to a solution of the IgG (5 mg/ml) in Tris-HCl (50 mM, pH 6.5) at a ratio of 5 moles of the ester (Compound 8) per mole IgG.
Protein modification was performed in an analogous manner, by the addition of a dioxane solution of the reagent at a known concentration to the antibody. The solution was incubated for 30 minutes before filtration through Sephadex G-25. The activity remaining was compared to control samples. Aliquots of IgG (5 mg/ml) inactivated with the ester (Compound 8) were diluted with four volumes of phosphate buffer (50 mM, pH 4-9, at intervals of 1 pH unit). Any pH change was recorded, and the sample was stored at 4 degrees C for 24 hours.
Initially, the ester was used at a concentration that was about four-fold greater than that of the protein, and the mixture was incubated at pH 7.2 for 10 minutes. Any change in fluorescence above background was noted.
The termination of the reaction is noted by the return of the rate of fluorescence increase to the background level.

[3] = substrate Compound 5, estimated, read-out: inhibition constant, stoichiometric reaction with Compound 5

Compound | Ki [1] | Ki [2, 3] | Ki ([2]; summary, kinetic parameters at low pH values, read-out: Ki (inhibition of antibody esterolysis))
CC(=O)Nc1ccc(OP(=O)(O)Cc2ccc(NC(=O)C(F)(F)F)cc2)cc1 [Compound 1i] | 800 nM | 100 nM | 
CC(=O)Nc1ccc(OP(=O)(O)Cc2ccc(NC(=O)C(F)(F)F)cc2)c(CNC(=O)c2cccc(C(=O)O)n2)c1 [Compound 3i] | 160 nM | 35 nM | 35 nM

Source: patent US5126258A (priority 1988, dated 1992)
